Experimental data taken from patent publication US20210213176A1, “CHEMICAL VAPOR DEPOSITION OF POLYMER COATINGS FOR CONTROLLED DRUG RELEASE, ASSEMBLIES CONTAINING SAME, AND METHODS OF PRODUCTION AND USE THEREOF” (The Board of Regents for the Oklahoma Agricultural and …, priority 2020, published 2021).

Legend:
[1] = tested on: Human coronary artery smooth muscle cells (HCASMC); assay: MTT cell metabolism assay on nanocoated devices; conditions: PDE31 coated, dose densities up to 100 μg/cm^2
[2] = tested on: human smooth muscle cells; conditions: 2.5 μM atorvastatin in medium (Dubuis et al., 2013); cited from earlier work
[3] = tested on: smooth muscle cells; conditions: atorvastatin concentration as low as 0.1 μM (Petersen et al., 2013; Baetta et al., 1997); cited from earlier work

SMILES: CC(C)c1c(C(=O)Nc2ccccc2)c(-c2ccccc2)c(-c2ccc(F)cc2)n1CC[C@@H](O)C[C@@H](O)CC(=O)[O-].CC(C)c1c(C(=O)Nc2ccccc2)c(-c2ccccc2)c(-c2ccc(F)cc2)n1CC[C@@H](O)C[C@@H](O)CC(=O)[O-].[Ca+2] [atorvastatin, Atorvastatin calcium]
- MTT activity of HCASMC with atorvastatin release [1]: no significant difference
- viability of human smooth muscle cells [2]: does not suppress the viability
- growth of smooth muscle cells [3]: effective in suppressing the growth
